Source: patent US9834542B2, “LXR modulators” (BRISTOL-MYERS SQUIBB COMPANY, priority 2013, dated 2017)

Target: T1, LXRβ (Homo sapiens, UniProt P55055)
T1 construct: Co-transfection expression plasmids, comprising full-length LXRα (pCMX-h LXRα[…] or LXRβ (pCMX-hLXRβ)); expressed in transfected cells; host or cells: CV-1 African Green Monkey Kidney Cells
T1 sequence (P55055 1-460): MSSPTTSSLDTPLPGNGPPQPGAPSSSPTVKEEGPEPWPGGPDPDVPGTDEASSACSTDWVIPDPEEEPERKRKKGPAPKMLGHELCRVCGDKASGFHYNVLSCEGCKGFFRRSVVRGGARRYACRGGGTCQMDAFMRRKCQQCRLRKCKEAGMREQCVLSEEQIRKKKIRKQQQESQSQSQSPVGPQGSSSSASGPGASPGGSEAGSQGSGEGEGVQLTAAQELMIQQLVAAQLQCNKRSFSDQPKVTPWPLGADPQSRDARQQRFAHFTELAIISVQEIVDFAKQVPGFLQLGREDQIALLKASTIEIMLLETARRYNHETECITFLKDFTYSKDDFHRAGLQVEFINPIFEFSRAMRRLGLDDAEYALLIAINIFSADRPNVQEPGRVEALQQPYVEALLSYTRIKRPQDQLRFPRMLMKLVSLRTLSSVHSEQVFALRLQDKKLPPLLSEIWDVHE
T1 sequence (P19793 1-462 partner): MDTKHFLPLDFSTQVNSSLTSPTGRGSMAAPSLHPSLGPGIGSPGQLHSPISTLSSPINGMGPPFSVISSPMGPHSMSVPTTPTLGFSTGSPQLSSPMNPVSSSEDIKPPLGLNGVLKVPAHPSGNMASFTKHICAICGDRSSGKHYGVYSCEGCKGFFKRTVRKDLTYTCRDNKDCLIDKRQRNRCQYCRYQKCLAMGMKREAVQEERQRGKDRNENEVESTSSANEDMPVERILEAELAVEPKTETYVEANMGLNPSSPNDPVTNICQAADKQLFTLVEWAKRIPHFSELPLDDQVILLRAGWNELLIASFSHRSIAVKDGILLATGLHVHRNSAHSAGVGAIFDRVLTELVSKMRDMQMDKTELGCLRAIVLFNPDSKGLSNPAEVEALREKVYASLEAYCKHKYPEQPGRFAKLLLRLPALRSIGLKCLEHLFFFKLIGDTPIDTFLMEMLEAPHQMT
Assay: Co-transfection assay (LXRE luciferase reporter), LXRβ
Assay type: cell-based
Conditions: for EC50: CV-1 cells transfected with pCMX-hLXRβ and LXREx1-Tk-Luciferase, 20 hours incubation; for Emax: LXRβ co-transfection, relative to high control 1-(2,4-difluorobenzyl)-2-oxo-6-(4-phenoxyphenyl)-4-(trifluoromethyl)-1,2-dihydropyridine-3-carbonitrile, read-out: % Efficacy
In short: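 CV-1 / pCMX-hLXRβ + LXREx1-Tk-Luc + β-gal; cpd 20 h, 37 °C, ≤0.5% DMSO; Steady-Glo luminescence. 11-pt ½-log curves, duplicate wells, sigmoidal fit → EC50; % efficacy vs high-control agonist, DMSO low control; mean of ≥2 expts.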

Row | Compound | EC50 [nM] | Emax [%]
1 | Cc1nc(C(F)(F)F)cn1-c1ccc(-c2ccc(CO)c(S(C)(=O)=O)c2)cc1-c1nc(CC(C)O)oc1-c1ccc(OC(F)(F)F)cc1 (centres unmarked) [Example 535, 1-(4-(4′-(hydroxymethyl)-4-(2-methyl-4-(trifluoromethyl)-1H-imidazol-1-yl)-3'-(methylsulfonyl)-[1,1′-biphenyl]-3-yl)-5-(4-(trifluoromethoxy)phenyl)oxazol-2-yl)propan-2-ol] | 617 | 62
2 | Cc1nc(C(F)(F)F)cn1-c1ccc(-c2cccc(S(C)(=O)=O)c2)cc1-n1nncc1-c1ccc2[nH]ccc2c1 [Example 45, 5-(1-{3′-(methylsulfonyl)-4-[2-methyl-4-(trifluoromethyl)-1H-imidazol-1-yl]biphenyl-3-yl}-1H-1,2,3-triazol-5-yl)-1H-indole] | 1840 | 53
3 | Cc1nc(C(F)(F)F)cn1-c1ccc(-c2cc(F)c(CO)c(S(C)(=O)=O)c2)cc1-c1nc(C(C)C)oc1-c1ccc2c(c1)OC(F)(F)O2 [Example 481, (3′-(5-(2,2-difluorobenzo[d][1,3]dioxol-5-yl)-2-isopropyloxazol-4-yl)-3-fluoro-4′-(2-methyl-4-(trifluoromethyl)-1H-imidazol-1-yl)-5-(methylsulfonyl)biphenyl-4-yl)methanol] | 54 | 66
4 | Cc1nc(-c2cc(-c3cccc(S(C)(=O)=O)c3)ccc2-n2cc(C(F)(F)F)nc2C)c(-c2ccc(F)cc2)o1 [Example 505, 5-(4-fluorophenyl)-2-methyl-4-(4-(2-methyl-4-(trifluoromethyl)-1H-imidazol-1-yl)-3′-(methylsulfonyl)biphenyl-3-yl)oxazole] | 144 | 87
5 | Cc1nc(-c2cc(-c3cc(F)c(CO)c(S(C)(=O)=O)c3)ccc2-n2cc(C(F)(F)F)nc2C)c(-c2ccc3c(c2)OC(F)(F)O3)o1 [Example 494, (3′-(5-(2,2-difluorobenzo[d][1,3]dioxol-5-yl)-2-methyloxazol-4-yl)-3-fluoro-4′-(2-methyl-4-(trifluoromethyl)-1H-imidazol-1-yl)-5-(methylsulfonyl)biphenyl-4-yl)methanol] | 47 | 90
6 | Cc1nc(C(F)(F)F)cn1-c1ccc(-c2cc(F)c(CO)c(S(C)(=O)=O)c2)cc1-c1nc(C2CC2)cn1-c1ccc2c(c1)OC(F)(F)O2 [Example 639, (3′-(4-cyclopropyl-1-(2,2-difluorobenzo[d][1,3]dioxol-5-yl)-1H-imidazol-2-yl)-3-fluoro-4′-(2-methyl-4-(trifluoromethyl)-1H-imidazol-1-yl)-5-(methylsulfonyl)biphenyl-4-yl)methanol] | 129 | 81
7 | Cc1nc(-c2cc(-c3cc(F)c(CO)c(S(C)(=O)=O)c3)ccc2-n2cc(C(F)(F)F)nc2C)c(-c2ccc(OC3CCCC3)nc2)o1 [Example 411, (3′-(5-(6-(cyclopentyloxy)pyridin-3-yl)-2-methyloxazol-4-yl)-3-fluoro-4′-(2-methyl-4-(trifluoromethyl)-1H-imidazol-1-yl)-5-(methylsulfonyl)biphenyl-4-yl)methanol] | 255 | 60
8 | COc1cc(-c2oc(C)nc2-c2cc(-c3cc(F)c(CO)c(S(C)(=O)=O)c3)ccc2-n2cc(C(F)(F)F)nc2C)ccc1OC(F)F [Example 381, (3′-(5-(4-(difluoromethoxy)-3-methoxyphenyl)-2-methyloxazol-4-yl)-3-fluoro-4′-(2-methyl-4-(trifluoromethyl)-1H-imidazol-1-yl)-5-(methylsulfonyl)biphenyl-4-yl)methanol] | 18 | 81
9 | Cc1nc(C(F)(F)F)cn1-c1ccc(-c2cccc(S(C)(=O)=O)c2)cc1-c1oc(CCN2CCCC2)nc1-c1ccc(OC(F)(F)F)cc1 [Example 620, 5-(4-(2-methyl-4-(trifluoromethyl)-1H-imidazol-1-yl)-3′-(methylsulfonyl)-[1,1′-biphenyl]-3-yl)-2-(2-(pyrrolidin-1-yl)ethyl)-4-(4-(trifluoromethoxy)phenyl)oxazole] | 202 | 94
10 | Cc1nc(C(F)(F)F)cn1-c1ccc(-c2ccc(CNS(C)(=O)=O)c(S(C)(=O)=O)c2)cc1-n1nncc1-c1ccc(OC(F)(F)F)cc1 [Example 87, N-{[3-(methylsulfonyl)-4′-[2-methyl-4-(trifluoromethyl)-1H-imidazol-1-yl]-3′-(5-{4-[(trifluoromethyl)oxy]phenyl}-1H-1,2,3-triazol-1-yl)biphenyl-4-yl]methyl}methanesulfonamide] | 662 | 89
11 | Cc1nc(-c2ccc(OC(F)(F)F)cc2)c(-c2cc(-c3cccc(S(C)(=O)=O)c3)ccc2-n2cc(C(F)(F)F)nc2C)o1 [Example 604, 2-methyl-5-(4-(2-methyl-4-(trifluoromethyl)-1H-imidazol-1-yl)-3′-(methylsulfonyl)-[1,1′-biphenyl]-3-yl)-4-(4-(trifluoromethoxy)phenyl)oxazole] | 54 | 86
12 | Cc1nc(-c2cc(-c3cc(F)c(CO)c(S(C)(=O)=O)c3)ccc2-n2cc(C(F)(F)F)nc2C)c(-c2ccc(C)c(F)c2)o1 [Example 503, (3-fluoro-3′-(5-(3-fluoro-4-methylphenyl)-2-methyloxazol-4-yl)-4′-(2-methyl-4-(trifluoromethyl)-1H-imidazol-1-yl)-5-(methylsulfonyl)biphenyl-4-yl)methanol] | 45 | 71
13 | Cc1nc(-c2ccc(OC(F)(F)F)cc2)c(-c2cc(-c3cc(F)c(CO)c(S(C)(=O)=O)c3)ccc2-n2cc(C(F)(F)F)nc2C)o1 [Example 603, (3-fluoro-3′-(2-methyl-4-(4-(trifluoromethoxy)phenyl)oxazol-5-yl)-4′-(2-methyl-4-(trifluoromethyl)-1H-imidazol-1-yl)-5-(methylsulfonyl)-[1,1′-biphenyl]-4-yl)methanol] | 40 | 91
14 | Cc1nc(C(F)F)cn1-c1ccc(-c2cccc(S(=O)(=O)N(C)C)c2)cc1-n1nncc1C(C)c1ccc(Cl)cc1 (centres unmarked) [Example 132, 3′-{5-[1-(4-chlorophenyl)ethyl]-1H-1,2,3-triazol-1-yl}-4′-[4-(difluoromethyl)-2-methyl-1H-imidazol-1-yl]-N,N-dimethylbiphenyl-3-sulfonamide] | 431 | 61
15 | Cc1nc(C(=O)NCC(F)(F)F)cn1-c1ccc(-c2cccc(S(C)(=O)=O)c2)cc1-n1nncc1-c1ccc(OC(F)(F)F)cc1 [Example 3, 2-methyl-1-[3′-(methylsulfonyl)-3-(5-{4-[(trifluoromethyl)oxy]phenyl}-1H-1,2,3-triazol-1-yl)biphenyl-4-yl]-N-(2,2,2-trifluoroethyl)-1H-imidazole-4-carboxamide] | 1950 | 74
16 | Cc1nc(-c2cc(-c3cc(F)c(CO)c(S(C)(=O)=O)c3)ccc2-n2cc(C(F)(F)F)nc2C)c(-c2ccc(OC(F)F)cc2)o1 [Example 496, (3′-(5-(4-(difluoromethoxy)phenyl)-2-methyloxazol-4-yl)-3-fluoro-4′-(2-methyl-4-(trifluoromethyl)-1H-imidazol-1-yl)-5-(methylsulfonyl)biphenyl-4-yl)methanol] | 48 | 116
17 | CCCCOc1ccc(-c2cnnn2-c2cc(-c3cccc(S(C)(=O)=O)c3)ccc2-n2cc(C(F)(F)F)nc2C)cc1 [Example 30, 5-[4-(butyloxy)phenyl]-1-{3′-(methylsulfonyl)-4-[2-methyl-4-(trifluoromethyl)-1H-imidazol-1-yl]biphenyl-3-yl}-1H-1,2,3-triazole] | 605 | 85
18 | Cc1nc(-c2ccc(OC(F)(F)F)cc2)c(-c2cc(-c3cccc([S+](C)[O-])c3)ccc2-n2cc(C(F)(F)F)nc2C)o1 (centres unmarked) [Example 627, 2-methyl-5-(4-(2-methyl-4-(trifluoromethyl)-1H-imidazol-1-yl)-3′-(methylsulfinyl)-[1,1′-biphenyl]-3-yl)-4-(4-(trifluoromethoxy)phenyl)oxazole] | 269 | 93
19 | Cc1ccc(C(C)c2cnnn2-c2cc(-c3cc(Cl)c(CO)c(S(C)(=O)=O)c3)ccc2-n2cc(C(F)(F)F)nc2C)cc1 (centres unmarked) [Example 110, (3-chloro-3′-{5-[1-(4-methylphenyl)ethyl]-1H-1,2,3-triazol-1-yl}-5-(methylsulfonyl)-4′-[2-methyl-4-(trifluoromethyl)-1H-imidazol-1-yl]biphenyl-4-yl)methanol] | 103 | 77
